Laboratory results reported in US12358921B2, “Antiviral heterocyclic compounds” (priority 2022, dated 2025).

Assays:
[1] = tested on: HUMAN RSV-A (“LONG” STRAIN); assay: RSV-A assay (CPE, ATPlite) in Hep-2 cells; format: cell-based; details: human respiratory syncytial virus, 120 h, MOI 0.1, 5-day incubation
Excerpt: Methods for RSV-A Assay Hep-2 cells, (originally derived from tumors grown in irradiated-cortisonised weanling rats that had been injected with epidermoid carcinoma tissue from the larynx of a person, but later found to be indistinguishable from HeLa cells by PCR DNA analysis), were used for the culturing of genotype A, “Long” strain RSV. Flasks were inoculated with RSV and viral stocks were collected once cytopathic effect (CPE) was greater than 90%. Viral stocks in 25% sucrose media were snap frozen using liquid nitrogen to increase viral stability. Viral stock titers were quantified by tissue culture infectious dose 50% (TCID50) using 8,000 cells per well and 3-fold viral dilutions across a 96-well plate, cultured for 4 days. Viral stock titers were also quantified by a plaque forming unit assay, as described elsewhere.
Following extensive parameter testing, the final assay is run as follows: Hep-2 cells are seeded into the inner 60 wells of a 96-well plate at 8,000 cells per well in a volume of 50 μL using Growth Media (DMEM without phenol red, 1% L-Glut, 1% Penn/Strep, 1% nonessential amino acids, 10% heat-inactivated FBS). 2-fold serial dilutions of control and test compounds are added to the wells in duplicate in a total volume of 25 μL. Viral stock is then added to the wells at a multiplicity of infection (MOI) of 0.1 in a volume of 25 μL, bringing the total volume of each well to 100 μL. The MOI is calculated using the PFU/mL, or TCID50 if unavailable. Each 96-well plate has a control column of 6 wells with cells and virus but no compound (negative control, max CPE), a column with cells but no compound or virus (positive control, minimum CPE), and a column with no cells or virus or compound (background plate/reagent control). The control wells with cells but no virus are given an additional 25 μL of growth media containing an equal quantity of sucrose as those wells receiving the viral stock in order to keep consistent in media and volume conditions. The outer wells of the plate are filled with 125 μL of moat media (DMEM, 1% Penn/Strep) to act as a thermal and evaporative moat around the test wells. Following a 5-day incubation period, the plates are read using ATPlite (50 uL added per well), which quantifies the amount of ATP (a measure of cell health) present in each well. Assay plates are read using the Envision luminometer. […] EC50 ranges are as follows: A<0.2 μM; B>0.2 μM.

hMPV A2 TN/94-49 = assay: HMPV antiviral assay Method 2 (LLC-MK2 cells with CP-100-356, ATP-Lite); format: cell-based; details: hMPV A2 TN/94-49, LLC-MK2 cells, 4 μM CP-100-356, Method 2
Procedure: In vitro HMPV antiviral activity was evaluated using the clinical isolate A2 strain TN 94-49 (obtained from Dr. John Williams, Vanderbilt University, Tennessee) and LLC-MK2 cells (Millipore Sigma CB_85062804), an immortalized kidney epithelial cell line from Macaca mulatta. Compounds were resuspended in dimethyl sulfoxide (DMSO) at 10 mM, serially diluted and added to a 384-well source plate. Subsequently, the compounds were diluted and transferred onto 384-well assay plates using the Echo-650 automated liquid handling system (Beckman Coulter, Indiana). The test compounds were assessed in duplicate at a top concentration of 200 nM followed by 2.5-fold serial dilutions to give a total of 10 concentration points. DMSO control wells were also included on the assay plates and were either infected or not, acting as positive and negative controls. A2 TN 94-49 virus infections were performed in-suspension with LLC-MK2 cells. The cells were washed twice with PBS and removed from the cell-culture flask with 0.25% trypsin-EDTA (Thermo Fisher Scientific, MA). The trypsin-EDTA was inactivated by resuspending in 2% fetal bovine serum (FBS) and OptiMEM (ThermoFisher Scientific, MA) containing 1% antibiotic-antimycotic. Cells were pelleted by centrifuging for 5 minutes at 800 rpm, the supernatant was removed, and cells were re-suspended and washed in PBS plus 100 μg/mL CaCl2). This step was performed twice. Cells were then re-suspended in serum-free (SF)-OptiMEM containing 4 μg/mL TPCK-Trypsin (Sigma Aldrich, MO), 1% antibiotic-antimycotic (ThermoFisher Scientific, MA), 100 μg/mL CaCl2), and 4 μM of CP-100-356, a P-glycoprotein inhibitor. Cells were counted and seeded at a density of 5,000 cells/well, 12.5 μL/well. Virus infections were done at a multiplicity of infection (MOI) of 0.16 with 12.5 μL added per well. Virus infections were performed in infection media which contained SF-OptiMEM, 100 μg/mL CaCl2) and 1% antibiotic-antimycotic. HMPV viral stocks are suspended in infection media+5% glycerol, thus an equal volume of infection media+5% glycerol was added to uninfected wells to equalize the final % glycerol across all wells of the assay plate. The final concentration of TPCK-trypsin was 2 μg/mL. The final concentration of CP-100-356 was 2 μM. The assay plates were incubated at 37° C., 5% CO2 for 7 days. After 7 days incubation, 12.5 μL of ATP-Lite (PerkinElmer, MA) was added to each well and the raw luminescence values were determined using the Envision 2104 (Perkin Elmer, MA). The average of the raw luminescence values for the cells and virus only positive control wells was subtracted from all conditions tested and the percent cell health was determined by dividing these values by the average of the cells only negative control wells. EC50 values were then calculated by non-linear regression using a four-parameter curve logistic equation. The curve fit model employed was XLFit Dose Response One Site Model 200: y=(A+(B/(1+((x/C)^D)))), where A is the minimum y value, B is the maximum y value, C is the log EC50value, and D is the slope factor.

Structure (SMILES) | EC50 [1] [nM] | EC50 (hMPV A2 TN/94-49) [nM]
Cc1nc2c(OC(F)F)cc(C(=O)NC[C@](O)(c3cc4c(c(-c5cc(Cl)c(F)cc5F)n3)OC[C@]4(C)C(N)=O)c3ccccc3F)cc2cc1Br [Example 139] | < 200 | > 200
COc1cc([C@](O)(CNC(=O)c2cc(OC)c3nn(C(F)F)cc3c2)c2cc3c(c(-c4cccc(Cl)c4Cl)n2)OC[C@]3(C)C(N)=O)cc(OC)n1 [Example 498] | < 200 | < 200
COc1cc(C(=O)NCC(O)(c2cc(F)nc(F)c2)c2cc3c(c(-c4cccc(Cl)c4Cl)n2)OC[C@]3(C)C(N)=O)cc2cn(C3CC3)nc12 (stereo partly drawn) [Example 499] | < 200 | < 200
C[C@]1(C(N)=O)COc2c1cc([C@@](O)(CNC(=O)c1ccc3nn(C4CC4)cc3c1)c1ccccc1)nc2-c1cc(Cl)c(F)cc1F [Example 101] | < 200 | < 200
COc1cc(C(=O)NC[C@@](O)(c2ccccc2)c2cc3c(c(-c4cccc(Cl)c4Cl)n2)OC[C@]3(C)C(N)=O)cc2oc(C)nc12 [Example 95] | < 200 | < 200
COc1cc(C(=O)NC[C@@](O)(c2cccc(C#N)c2)c2cc3c(c(-c4cc(Cl)c(F)cc4F)n2)OC[C@]3(C)C(N)=O)cc2cn(C3CC3)nc12 [Example 488] | < 200 | < 200
COc1cc(F)c(-c2nc([C@@](O)(CNC(=O)c3cc(OC)c4nn(C5(F)CC5)cc4c3)c3ccccc3)cc3c2OC[C@]3(C)C(N)=O)cc1F [Example 363] | < 200 | > 200
COc1cc(C(=O)NC[C@@](O)(c2cccc(F)n2)c2cc3c(c(-c4cc(Cl)c(F)cc4F)n2)OC[C@]3(C)C(N)=O)cn2cc(C3CC3)nc12 [Example 154] | < 200 | < 200
COc1cc(C(=O)NC[C@@](O)(c2ccccc2)c2cc3c(c(-c4cccc5c4OCO5)n2)OC[C@]3(C)C(N)=O)cc2cn(C3(F)CC3)nc12 [Example 366] | < 200 | > 200
COc1cc(C(=O)NC[C@@](O)(c2cnn(C)c2)c2cc3c(c(-c4cc(Cl)c(F)cc4F)n2)OC[C@]3(C)C(N)=O)cc2cn(C3CC3)nc12 [Example 153] | > 200 | > 200
COc1cc(-c2nc([C@@](O)(CNC(=O)c3cc(OC)c4nn(C5(F)CC5)cc4c3)c3ccccc3)cc3c2OC[C@]3(C)C(N)=O)c(F)cc1F [Example 364] | < 200 | > 200
COc1cc(C(=O)NC[C@@](O)(c2ccnc(N)c2)c2cc3c(c(-c4cc(Cl)c(F)cc4F)n2)OC[C@]3(C)C(N)=O)cc2cn(C3CC3)nc12 [Example 484] | < 200 | < 200
COc1cc(C(=O)NC[C@@](O)(c2ccccc2)c2cc3c(c(-c4cc(Cl)c(F)cc4F)n2)OC[C@]3(C)C(N)=O)cn2cc(C3CC3)nc12 [Example 115] | < 200 | < 200
C[C@]1(C(N)=O)COc2c1cc([C@@](O)(CNC(=O)c1cc(OC3CC3)c3nn(C4(F)CC4)cc3c1)c1cccc(F)c1)nc2-c1cccc(Cl)c1Cl [Example 339] | < 200 | < 200
COc1cc(C(=O)NC[C@@](O)(c2cccc(F)n2)c2cc3c(c(-c4cc(Cl)c(F)cc4F)n2)OC[C@]3(C)C(N)=O)cc2cn(C(F)F)nc12 [Example 205] | < 200 | < 200
C[C@]1(C(N)=O)COc2c1cc([C@@](O)(CNC(=O)c1cc(OC3CC3)c3nn(C4CC4)cc3c1)c1ccccc1)nc2-c1cc(Cl)c(F)cc1F [Example 98] | < 200 | < 200

Structure (SMILES) | EC50 [1] [nM] | EC50 (hMPV A2 TN/94-49) [nM]
COc1cc(C(=O)NC[C@@](O)(c2ccccc2)c2cc3c(c(-c4cc(C(F)(F)F)c(F)cc4F)n2)OC[C@]3(C)C(N)=O)cc2cn(C3CC3)nc12 [Example 302] | < 200 | < 200
COc1cc(C(=O)NCC(O)(c2cc(F)nc(F)c2)c2cc3c(c(-c4cccc(Cl)c4Cl)n2)OC[C@]3(C)C(N)=O)cc2cn(C(F)F)nc12 (stereo partly drawn) [Example 500] | < 200 | < 200
C[C@]1(C(N)=O)COc2c1cc([C@@](O)(CNC(=O)c1ccc3nc(C4CC4)oc3c1)c1cccc(F)c1)nc2-c1cc(C(F)(F)F)c(F)cc1F [Example 308] | < 200 | > 200
COc1cc(C(=O)NC[C@@](O)(c2ccc(S(C)(=O)=O)cc2)c2cc3c(c(-c4cc(Cl)c(F)cc4F)n2)OC[C@]3(C)C(N)=O)cc2cn(C3CC3)nc12 [Example 482] | < 200 | > 200
C[C@]1(C(N)=O)COc2c1cc([C@@](O)(CNC(=O)c1cc(C(F)(F)F)c3nn(C4CC4)cc3c1)c1ccccc1)nc2-c1cc(Cl)c(F)cc1F [Example 228] | – | < 200
COc1cc(C(=O)NC[C@@](O)(c2cncnc2)c2cc3c(c(-c4cc(Cl)c(F)cc4F)n2)OC[C@]3(C)C(N)=O)cc2cn(C3CC3)nc12 [Example 479] | – | < 200
COc1cc(C(=O)NC[C@@](O)(c2ccccc2)c2cc3c(c(-c4cc(S(C)(=O)=O)ccc4F)n2)OC[C@]3(C)C(N)=O)cc2cn(C3(F)CC3)nc12 [Example 372] | – | > 200
COc1cc([C@](O)(CNC(=O)c2cc(OC)c3nn(C4CC4)cc3c2)c2cc3c(c(-c4cc(Cl)c(F)cc4F)n2)OC[C@]3(C)C(N)=O)cc(F)n1 [Example 503] | – | < 200
C[C@]1(C(N)=O)COc2c1cc([C@@](O)(CNC(=O)c1ccc3nc(C4CC4)oc3c1)c1ccccc1)nc2-c1cc(C(F)F)c(F)cc1F [Example 311] | – | < 200
COc1cc(C(=O)NC[C@@](O)(c2ccccc2)c2cc3c(c(-c4cc(Cl)c(F)cc4F)n2)OC[C@]3(C)C(N)=O)cc(O)c1NC(=O)C1(F)CC1 [Example 242] | – | > 200
COc1cc(C(=O)NCC(O)(c2ccc(F)cn2)c2cc3c(c(-c4cc(Cl)c(F)cc4F)n2)OC[C@]3(C)C(N)=O)cc2cn(C3CC3)nc12 (stereo partly drawn) [Example 210] | – | < 200
Cc1cc(C(=O)NC[C@@](O)(c2ccccc2)c2cc3c(c(-c4cc(Cl)c(F)cc4F)n2)OC[C@]3(C)C(N)=O)cc2cn[nH]c12 [Example 118] | – | < 200
COc1cc(C(=O)NC[C@@](O)(c2cccc(C(C)O)c2)c2cc3c(c(-c4cccc(Cl)c4Cl)n2)OC[C@]3(C)C(N)=O)cc2cn(C3CC3)nc12 (stereo partly drawn) [Example 495] | – | > 200
C[C@]1(C(N)=O)COc2c1cc([C@@](O)(CNC(=O)c1ccc3nc(C4CCC4)oc3c1)c1ccccc1)nc2-c1cc(Cl)c(F)cc1F [Example 221] | – | > 200
COc1cc(C(=O)NC[C@](O)(c2cc3c(c(-c4cc(Cl)c(F)cc4F)n2)OC[C@]3(C)C(N)=O)c2ccnn2C)cc2cn(C3CC3)nc12 [Example 481] | – | < 200
